Laboratory results as given in patent publication US9723989B2, “Ex vivo motility contrast imaging” (Purdue Research Foundation, priority 2015, dated 2017).

Test system: DLD-1 tumor spheroid
Experiment: Biodynamic imaging / tissue dynamics spectroscopy, combined (Het, Div) metric of drug response
Format: cell-based
Conditions: per-pixel TDS drug-response spectrograms, FIG. 14, FIG. 15
Text: There are two light paths in the optical coherence imaging system. The laser source provides light which is intensity-controlled by the neutral density filter and size-controlled by lenses L1 and L2. Light is communicated through a half-wave plate, and is then communicated through a polarizing beam splitter (PBS1) which generates an object path and a reference path. Lenses L3 and L4 expand the reference beam, and lens L5 performs the Fourier transform of the back-scattered dynamic speckle from a target. The wave plates (half-wave plate and quarter-wave plate) and the PBS2 ensure most of the laser power is in the object beam, and most of the back-scattered signal reaches the charge coupled device (CCD). The target is often a multicellular tumor spheroid, but can be any living biological specimen that is sufficiently immobilized, such as living tissue obtained by surgical biopsy or by needle biopsy. In TDS experiments, the images are captured at a fixed-depth (usually the mid-plane of the tumor tissue). For example, if the tumor spheroid has a diameter of 500 microns, the images captured by the CCD camera are the Fourier Domain back-scattered dynamic speckle holograms at the fixed depth of 250 microns in the tumor spheroid. Conversely, sections from multiple depths can be acquired to obtain stacks of images that are reconstructed into three-dimensional optical coherence volumetric images. In each 4 min interval, 2 acquisition rates are applied. First 200 images are captured at 25 fps; then another 100 images are captured at 0.5 fps. Thus after combining the high frequency data and the low frequency data together, in each 4 min interval (each data set), the spectrum frequency range is from 0.005 Hz to 12.5 Hz across more than 3 orders of magnitude.
The high-frequency acquisition generates a series of image frames in which the speckle varies in intensity from frame to frame. These intensities are analyzed using a Fourier transform to generate a high-frequency spectrum. The low-frequency acquisition similarly generates a low-frequency spectrum. These high- and low-frequency spectra overlap over a frequency range. A stitching algorithm is performed that combined the high- and low-frequency spectra into a single broad-band spectrum. This spectrum relates to the 300 images and constitutes one time-point spectrum. The process is repeated to generate a series of time-point spectra.
The outcome of the heterogeneity sampling can be encapsulated in a small number of metrics that are communicated to the operator. […]
An example of spatial non-uniformity is shown in FIG. 14 for the Raf inhibitor drug Sorafenib applied to a DLD-1 tumor spheroid. […] These spectrograms were analyzed for intensity and for spectral content. […]

CC(C)[C@@H]1NC(=O)[C@H](C)OC(=O)[C@@H](C(C)C)NC(=O)[C@@H](C(C)C)OC(=O)[C@H](C(C)C)NC(=O)[C@H](C)OC(=O)[C@@H](C(C)C)NC(=O)[C@@H](C(C)C)OC(=O)[C@H](C(C)C)NC(=O)[C@H](C)OC(=O)[C@@H](C(C)C)NC(=O)[C@@H](C(C)C)OC1=O [valinomycin]
Heterogeneity (Het) - how spatially uniform is the response: One of the most uniform

CNC(=O)c1cc(Oc2ccc(NC(=O)Nc3ccc(Cl)c(C(F)(F)F)c3)cc2)ccn1 [Sorafenib]
Heterogeneity (Het) - how spatially uniform is the response: 0.83

CC(=O)O[C@H]1C(=O)[C@@]2(C)[C@H]([C@H](OC(=O)c3ccccc3)[C@]3(O)C[C@H](OC(=O)[C@H](O)[C@@H](NC(=O)c4ccccc4)c4ccccc4)C(C)=C1C3(C)C)[C@]1(OC(C)=O)CO[C@@H]1C[C@@H]2O [taxol]
Diversity (Div) - phenotypic diversity, difference in spectrogram features / spectral content: spectral content appears the same for core and shell | Heterogeneity (Het) - how spatially uniform is the response: high spatial heterogeneity
